Assay results taken from patent publication US11603355B2, “Charged ion channel blockers and methods for use” (Nocion Therapeutics, Inc., priority 2019, dated 2023).
Where a name gives a salt, the structure may show the parent alone.

Key:
[1] = target: T1, NaV1.7 (Homo sapiens, UniProt Q15858); test: Automated patch clamp (Qube 384), external block of NaV1.7; assay type: cell-based; conditions: IC50, compound in external solution, HEK293 cells, read-out: Nav1.7 Extracellular Inhibition
T1 construct: expressed in transfected cells; host or cells: HEK293 (tetracycline-inducible)
T1 sequence (Q15858 whole entry): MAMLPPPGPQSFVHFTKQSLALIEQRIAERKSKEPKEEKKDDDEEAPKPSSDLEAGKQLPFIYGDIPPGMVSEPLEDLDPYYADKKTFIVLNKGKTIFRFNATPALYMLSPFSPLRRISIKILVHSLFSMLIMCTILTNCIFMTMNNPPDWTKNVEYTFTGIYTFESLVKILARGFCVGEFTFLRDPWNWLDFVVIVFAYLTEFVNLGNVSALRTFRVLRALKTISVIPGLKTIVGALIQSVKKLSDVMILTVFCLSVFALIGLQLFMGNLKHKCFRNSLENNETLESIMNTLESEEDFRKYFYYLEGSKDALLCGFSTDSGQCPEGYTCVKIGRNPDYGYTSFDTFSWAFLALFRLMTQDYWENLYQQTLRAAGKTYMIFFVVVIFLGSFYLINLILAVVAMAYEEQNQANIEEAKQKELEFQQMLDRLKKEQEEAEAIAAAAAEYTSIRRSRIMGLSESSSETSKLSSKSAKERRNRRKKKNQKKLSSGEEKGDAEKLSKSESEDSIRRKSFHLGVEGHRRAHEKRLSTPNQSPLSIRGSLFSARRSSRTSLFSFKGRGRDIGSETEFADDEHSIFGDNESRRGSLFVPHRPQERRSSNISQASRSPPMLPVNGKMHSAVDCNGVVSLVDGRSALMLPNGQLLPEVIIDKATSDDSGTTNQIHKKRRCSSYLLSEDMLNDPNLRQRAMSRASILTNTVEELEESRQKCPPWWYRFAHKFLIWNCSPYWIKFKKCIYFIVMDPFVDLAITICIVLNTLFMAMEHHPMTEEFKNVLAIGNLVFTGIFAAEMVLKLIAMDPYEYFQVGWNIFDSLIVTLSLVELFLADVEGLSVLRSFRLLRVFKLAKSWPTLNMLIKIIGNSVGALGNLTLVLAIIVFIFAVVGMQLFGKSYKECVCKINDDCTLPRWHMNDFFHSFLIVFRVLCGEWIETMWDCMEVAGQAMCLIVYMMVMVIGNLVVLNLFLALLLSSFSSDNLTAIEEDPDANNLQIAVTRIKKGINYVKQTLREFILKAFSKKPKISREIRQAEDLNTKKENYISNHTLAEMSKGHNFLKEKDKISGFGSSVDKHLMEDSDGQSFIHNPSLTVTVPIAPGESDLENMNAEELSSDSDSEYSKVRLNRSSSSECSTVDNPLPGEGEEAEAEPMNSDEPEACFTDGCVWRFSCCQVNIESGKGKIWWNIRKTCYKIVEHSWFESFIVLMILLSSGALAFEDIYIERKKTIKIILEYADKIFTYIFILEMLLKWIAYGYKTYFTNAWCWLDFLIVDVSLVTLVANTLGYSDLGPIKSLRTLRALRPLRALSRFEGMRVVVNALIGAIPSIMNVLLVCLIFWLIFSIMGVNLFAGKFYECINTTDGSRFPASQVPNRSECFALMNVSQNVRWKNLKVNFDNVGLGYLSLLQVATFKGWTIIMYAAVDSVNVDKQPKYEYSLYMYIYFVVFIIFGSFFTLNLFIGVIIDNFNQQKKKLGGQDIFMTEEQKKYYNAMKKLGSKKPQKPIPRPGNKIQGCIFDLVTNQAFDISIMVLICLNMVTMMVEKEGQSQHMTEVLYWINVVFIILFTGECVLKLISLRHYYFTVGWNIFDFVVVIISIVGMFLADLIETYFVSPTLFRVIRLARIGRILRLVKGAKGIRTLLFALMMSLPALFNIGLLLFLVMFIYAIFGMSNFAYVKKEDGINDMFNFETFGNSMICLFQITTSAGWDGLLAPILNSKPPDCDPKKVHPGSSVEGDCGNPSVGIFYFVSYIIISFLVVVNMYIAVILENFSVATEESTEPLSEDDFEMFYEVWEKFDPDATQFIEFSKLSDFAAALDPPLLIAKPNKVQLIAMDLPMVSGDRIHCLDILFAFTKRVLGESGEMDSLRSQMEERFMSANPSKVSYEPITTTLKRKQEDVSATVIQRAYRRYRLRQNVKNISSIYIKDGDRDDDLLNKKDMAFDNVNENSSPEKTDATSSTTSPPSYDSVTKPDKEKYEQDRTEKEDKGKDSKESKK
Method: NaV1.7 was expressed in HEK293 cells upon induction with tetracycline. Cells were cultured in DMEM containing 10% dialyzed Fetal Bovine Serum (VWR, Radnor, Pa.), 1% Glutamax (VWR, Radnor, Pa.), 1% Penicillin-Streptomycin (VWR, Radnor, Pa.), 100 mg/L Hygromycin (Thermo Fisher Scientific, Waltham, Mass. and 5 mg/L Blasticidin (Alfa Aesar, Haverhill, Mass.). Cells were grown and maintained at 37° C. in a humidified environment containing 10% CO2 in air. Cells were detached from the culture flask for passage and harvested using 0.05% Trypsin-EDTA (Thermo Fisher Scientific, Waltham, Mass.). To induce NaV1.7, cells were induced with tetracycline (0.1-1 μg/mL, IBI Scientific, Peosta, Iowa) the day before recording.
Before experiments, cells were washed with DPBS (VWR, Radnor, Pa.), digested with Detachin (VWR Radnor, Pa.) and then triturated 10 times in CHO Serum-Free Media (VWR Radnor, Pa.) to resuspend the cells and to break apart cell aggregates. Cells were counted and the final concentration was set at 2-5 million cells per mL.
The intracellular solution contained the following: 140 mM CsF, 1 mM/5 mM EGTA/CsOH, 10 mM HEPES, 10 mM NaCl, adjusted to pH 7.3 with CsOH, and osmolality to 320 with OSM solution. The external solution contained the following: 145 mM NaCl, 4 mM KCl, 1 mM MgCl2, 2 mM CaCl2), 10 mM HEPES, 10 mM Glucose, adjusted to pH 7.4 with CsOH and osmolality to 305 with OSM solution. The OSM solution was a normal Ringer solution containing (in mM) NaCl 155, HEPES 10, sucrose, KCl 3.5, CaCl2) 1.5, MgCl2 1 adjusted to pH 7.4 with NaOH. All chemicals are from Sigma-Aldrich, St. Louis, Mo. In order to test the degree of internal block by test compounds, the compounds were dissolved in internal solution at the indicated test concentration. […] In order to test the degree of external block by test compounds the compounds were dissolved in external solution at the indicated test concentration.
Automated Patch Clamps were performed on Qube 384 (Sophion Bioscience, Woburn Mass.) with multihole Qchips at a temperature setting of 22 degrees. The whole cells configuration was formed with default Qube seal and break-in parameter. The membrane potential was held at −100 mV before the voltage protocol began. Two voltage protocols were followed.
Step 1: Cells were held at −100 mV with a depolarized pulse to −20 mV for 10 ms, the interval was set at 5 s. Currents were corrected by default leak subtraction from every pulse. The duration was set at 5 mins.
Step 2: Cells were held at −100 mV with a depolarized pulse to −20 mV for 10 ms. The frequency was 5 Hz. Currents were corrected by leak subtraction calculated before step 2. The duration was set at 4 mins.
After Step 2, the external solution was changed with solutions containing test compounds. Qchips were held at −100 mV without pulsing. The total solution switching time was 8 minutes. After the external solution exchange, cells were recorded using the same procedure as step 2 for 10 minutes.
Data analysis was performed by Sophion Analyzer. Data were corrected with control cells (Non-Drug). The IC50 data were plotted with DR-plots/Hill function (a dose-response plot with a Hill fit). Representative examples of the invention were tested for extracellular inhibition of NaV 1.7 in the automated patch clamp assay. Activity Range is reported as IC50: “++++” ([…], “+++” (1-3 μM), “++” ([…]) or “+” (>10 μM). The results are presented below.

[2] = target: T1, NaV1.7; test: Automated patch clamp (Qube 384), internal block of NaV1.7; assay type: cell-based; conditions: IC50, compound in internal solution, HEK293 cells, read-out: Nav1.7 Intracellular Inhibition
Method in brief: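 Tetracycline-induced HEK293 cells, whole-cell Qube recording at 22 degrees; compounds dissolved in internal solution (CsF-based, pH 7.3), exchanged after baseline. Held at −100 mV, 10 ms pulses to −20 mV at 5 Hz for 10 min; remaining current (last 3 points) vs baseline, rundown-corrected with no-drug cells; Hill-fit IC50.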

[3] = PAMPA membrane permeability assay; assay type: in vitro ADME; conditions: permeability coefficient, pH 7.4 buffer, GIT lipid, 4 hours incubation
Method in brief: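 Passive diffusion across a GIT-lipid-painted artificial membrane at pH 7.4, with a 50 uM donor stock diluted from DMSO and a 4 h incubation. UV spectra of the donor, acceptor and reference plates were read, and the permeability coefficient was calculated from the AUCs, in 10^−6 cm/s.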

Compound	IC50 [1] [nM]	IC50 [2] [nM]	PAMPA (10^−6 cm/s) [3]
1-benzyl-1-(2-((2-(dimethylcarbamoyl)-6-methylphenyl) amino)-2-oxoethyl) azepan-1-ium bromide [Compound 81A]	> 10000	300 to 1000	+ (“+” (<0.1 10^−6 cm/s))
COC(=O)c1cccc(C[N+]2(CC(=O)Nc3c(C)cccc3C)CCCCC2)c1.[Br-] [Compound 35A, 1-(2-((2,6-dimethylphenyl)amino)-2-oxoethyl)-1-(3-(methoxycarbonyl)benzyl) piperidin-1-ium bromide]	> 10000	1000 to 3000	+ (“+” (<0.1 10^−6 cm/s))
COC(=O)c1ccc(C[N+]2(CC(=O)Nc3c(C)cccc3C)CCCCC2)cc1.[Br-] [Compound 36A, 1-(2-((2,6-dimethylphenyl)amino)-2-oxoethyl)-1-(4-(methoxycarbonyl)benzyl) piperidin-1-ium bromide]	> 10000	3000 to 10000	+ (“+” (<0.1 10^−6 cm/s))
Cc1cccc(C)c1N(C)C(=O)C[N+]1(Cc2ccccc2)CCCCCC1 [Compound 38A, 1-benzyl-1-(2-((2,6-dimethylphenyl) (methyl)amino)-2-oxoethyl) azepan-1-ium formate]	> 10000	1000 to 3000	+ (“+” (<0.1 10^−6 cm/s))
CCCCNc1ccc(NC(=O)C[N+]2(Cc3ccccc3)CCCCCC2)cc1.O=C[O-] [Compound 41A, 1-benzyl-1-(2-((4-(butylamino)phenyl)amino)-2-oxoethyl) azepan-1-ium formate]	> 10000	3000 to 10000	+ (“+” (<0.1 10^−6 cm/s))
CCCOC(=O)C1CCC[N+](CC(=O)Nc2c(C)cccc2C)(Cc2ccccc2)C1.[Br-] (stereo not shown) [Compound 47A, 1-benzyl-1-(2-((2,6-dimethylphenyl)amino)-2-oxoethyl)-3-(propoxycarbonyl) piperidin-1-ium bromide]	1000 to 3000	1000 to 3000	+ (“+” (<0.1 10^−6 cm/s))
CCNC(=O)C1CCC[N+](CC(=O)Nc2c(C)cccc2C)(Cc2ccccc2)C1.[Br-] (stereo not shown) [Compound 54A, 1-benzyl-1-(2-((2,6-dimethylphenyl)amino)-2-oxoethyl)-3-(ethylcarbamoyl) piperidin-1-ium bromide]	> 10000	300 to 1000	+ (“+” (<0.1 10^−6 cm/s))
CNC(=O)C1CCC[N+](CC(=O)Nc2c(C)cccc2C)(Cc2ccccc2)C1 (stereo not shown) [Compound 55A]	> 10000	300 to 1000	+++ (“+++” (2.0-10.010^−6 cm/s))
Cc1cccc(C)c1NC(=O)C[N+]1(Cc2ccccc2)CCCC(C(=O)NC(C)C)C1 (stereo not shown) [Compound 56A]		1000 to 3000	+ (“+” (<0.1 10^−6 cm/s))
CCCNC(=O)C1CCC[N+](CC(=O)Nc2c(C)cccc2C)(Cc2ccccc2)C1 (stereo not shown) [Compound 57A]	3000 to 10000	300 to 1000	+ (“+” (<0.1 10^−6 cm/s))
Cc1cccc(C)c1NC(=O)C[N+]1(Cc2ccccc2)CCCC(C(=O)N2CCCC2)C1 (stereo not shown) [Compound 62A]	> 10000	300 to 1000	+ (“+” (<0.1 10^−6 cm/s))
Cc1cccc(C)c1NC(=O)C[N+]1(Cc2ccccc2)CCCC(C(=O)N2CCCCC2)C1 (stereo not shown) [Compound 63A]	3000 to 10000	300 to 1000	+ (“+” (<0.1 10^−6 cm/s))
Cc1cccc(C)c1NC(=O)C[N+]1(Cc2ccccc2)CCCC(C(=O)N(C)C)C1.[Br-] (stereo not shown) [Compound 65A]		300 to 1000	+ (“+” (<0.1 10^−6 cm/s))
COc1cccc(C)c1NC(=O)C[N+]1(Cc2ccccc2)CCCCCC1 [Compound 71A]		300 to 1000	+ (“+” (<0.1 10^−6 cm/s))
Cc1cccc(C#N)c1NC(=O)C[N+]1(Cc2ccccc2)CCCCCC1.[Br-] [Compound 72A]		300 to 1000	+ (“+” (<0.1 10^−6 cm/s))
Cc1cccc(C(C)C)c1NC(=O)C[N+]1(Cc2ccccc2)CCCCCC1.[Br-] [Compound 74A]		300 to 1000	+ (“+” (<0.1 10^−6 cm/s))
Cc1cccc(-c2ccccc2)c1NC(=O)C[N+]1(Cc2ccccc2)CCCCCC1.[Br-] [Compound 76A]		1000 to 3000	+ (“+” (<0.1 10^−6 cm/s))

The next lines start with the values.

IC50 [1] [nM]	IC50 [2] [nM]	PAMPA (10^−6 cm/s) [3]	Compound
3000 to 10000	300 to 1000	+ (“+” (<0.1 10^−6 cm/s))	Cc1cccc(C)c1NC(=O)C[N+]1(Cc2ccccc2)CCCC(C(=O)OC(C)C)C1 (mixture of isomers) [Compound 46A, 1-benzyl-1-(2-((2,6-dimethylphenyl)amino)-2-oxoethyl)-3-(isopropoxycarbonyl) piperidin-1-ium trifluoroacetate salt]
> 10000	300 to 1000	+ (“+” (<0.1 10^−6 cm/s))	Cc1cccc(C)c1NC(=O)C[N+]1(Cc2ccccc2)CCCC(C(N)=O)C1.[Br-] (mixture of isomers) [Compound 53A, 1-benzyl-3-carbamoyl-1-(2-((2,6-dimethylphenyl)amino)-2-oxoethyl) piperidin-1-ium bromide]
> 10000	300 to 1000	+ (“+” (<0.1 10^−6 cm/s))	Cc1cccc(C)c1NC(=O)C[N+]1(Cc2ccccc2)CCCC(F)(F)C1.[Br-] (stereo not shown) [Compound 32A, 1-benzyl-1-(2-((2,6-dimethylphenyl)amino)-2-oxoethyl)-3,3-difluoropiperidin-1-ium bromide]
	300 to 1000	+ (“+” (<0.1 10^−6 cm/s))	[2H]c1c([2H])c([2H])c(C[N+]2(CC(=O)Nc3c(C)cccc3C)CCCCCC2)c([2H])c1[2H].[Cl-] [Compound 33A, 1-(2-((2,6-dimethylphenyl)amino)-2-oxoethyl)-1-((phenyl-d5)methyl) azepan-1-ium chloride]
> 10000	300 to 1000	+ (“+” (<0.1 10^−6 cm/s))	COC(=O)c1ccccc1C[N+]1(CC(=O)Nc2c(C)cccc2C)CCCCC1.[Br-] [Compound 37A, 1-(2-((2,6-dimethylphenyl)amino)-2-oxoethyl)-1-(2-(methoxycarbonyl)benzyl) piperidin-1-ium bromide]
> 10000	< 300	+ (“+” (<0.1 10^−6 cm/s))	COC(=O)C1CC[N+](CC(=O)Nc2c(C)cccc2C)(Cc2ccccc2)CC1.[Br-] (stereo not shown) [Compound 44A, 1-benzyl-1-(2-((2,6-dimethylphenyl)amino)-2-oxoethyl)-4-(methoxycarbonyl) piperidin-1-ium bromide]
> 10000	300 to 1000	+ (“+” (<0.1 10^−6 cm/s))	CCOC(=O)C1CCC[N+](CC(=O)Nc2c(C)cccc2C)(Cc2ccccc2)C1.[Br-] (stereo not shown) [Compound 45A, 1-benzyl-1-(2-((2,6-dimethylphenyl)amino)-2-oxoethyl)-3-(ethoxycarbonyl) piperidin-1-ium bromide]
	< 300	+ (“+” (<0.1 10^−6 cm/s))	CCC(=O)OC1CCC[N+](CC(=O)Nc2c(C)cccc2C)(Cc2ccccc2)C1.[Br-] (stereo not shown) [Compound 52A, 1-benzyl-1-(2-((2,6-dimethylphenyl)amino)-2-oxoethyl)-3-(propionyloxy) piperidin-1-ium bromide]
